Source: patent US20030198617A1, “Pharmaceutical tryptophan containing dipeptide compositions and methods of use thereof” (priority 1993, published 2003)
Marks after values point to notes of the source that are not given here.

Assay: Blood parameters of Chernobyl victims after 3 years of treatment
Format: in vivo, human
Details: after therapy, IM862
Text: Blood parameters after 3 years of such treatment were restored to the statistical norm prior to their exposure to the radiation.

Q: Which “B-Ig+, %” value does the source give for Glu-Trp [IM862] here?
A: 11.0 ± 0.3%

Q: And the “B-Ig+, abs” value?
A: 0.23 ± 0.04 10^9/l

Q: What about the “B-IgA+, %” value of the same substance?
A: 1.9 ± 0.3%

Q: And the “B-IgA+, abs” value?
A: 0.04 ± 0.002 10^9/l

Q: And the “B-IgG+, %” value?
A: 4.8 ± 0.5%

Q: And the “B-IgG+, abs” value?
A: 0.09 ± 0.007 10^9/l

Q: What about the “B-IgM+, %” value of the same substance?
A: 4.1 ± 0.6 %

Q: And the “B-IgM+, abs” value?
A: 0.12 ± 0.003 10^9/l

Q: What about the “CD2-DR+, &” value of the same substance?
A: 32 ± 3 &

Q: And the “CD2-DR+, abs” value?
A: 0.66 ± 0.10** 10^9/l

Q: And the “CD3, %” value?
A: 59.2 ± 2.1 %

Q: What about the “CD3, abs” value of the same substance?
A: 1.21 ± 0.15 10^9/l

Q: And the “CD4, %” value?
A: 36.2 ± 1.7%

Q: And the “CD4, abs” value?
A: 0.74 ± 0.08 10^9/l

Q: And the “CD8, %” value?
A: 23.2 ± 2.1 %

Q: And the “CD8, abs” value?
A: 0.48 ± 0.07** 10^9/l

Q: What about the “IMI, %” value of the same substance?
A: 75 ± 6 %

Q: What about the “IgA” value of the same substance?
A: 1.2 ± 0.4 g/L

Q: And the “IgG” value?
A: 10.9 ± 1.3 g/L

Q: What about the “IgM” value of the same substance?
A: 1.06 ± 0.06 g/L

Q: What about the “Leukocytes, abs” value of the same substance?
A: 5.6 ± 0.4 10^9/l

Q: And the “Lymphocytes, abs” value?
A: 2.1 ± 0.3 10^9/l

Q: And the T4/T8?
A: 1.58 ± 0.04
